Data on 3 molecules can be found in ChEMBL document CHEMBL3872258, “Challenges in the development of an M4 PAM in vivo tool compound: The discovery of VU0467154 and unexpected DMPK profiles of close analogs” (Bioorg Med Chem Lett, 2017).

Data set [1] in a line: Ratio of total drug level in brain to plasma in Sprague-Dawley rat at 0.20 to 0.25 mg/kg, iv administered through cassette dosing after 0.25 hrs. The class given is ADME, organism-based.
The target in data set [2] is T1, Muscarinic acetylcholine receptor M2 (Homo sapiens, UniProt P08172).
T1 sequence (P08172 whole entry): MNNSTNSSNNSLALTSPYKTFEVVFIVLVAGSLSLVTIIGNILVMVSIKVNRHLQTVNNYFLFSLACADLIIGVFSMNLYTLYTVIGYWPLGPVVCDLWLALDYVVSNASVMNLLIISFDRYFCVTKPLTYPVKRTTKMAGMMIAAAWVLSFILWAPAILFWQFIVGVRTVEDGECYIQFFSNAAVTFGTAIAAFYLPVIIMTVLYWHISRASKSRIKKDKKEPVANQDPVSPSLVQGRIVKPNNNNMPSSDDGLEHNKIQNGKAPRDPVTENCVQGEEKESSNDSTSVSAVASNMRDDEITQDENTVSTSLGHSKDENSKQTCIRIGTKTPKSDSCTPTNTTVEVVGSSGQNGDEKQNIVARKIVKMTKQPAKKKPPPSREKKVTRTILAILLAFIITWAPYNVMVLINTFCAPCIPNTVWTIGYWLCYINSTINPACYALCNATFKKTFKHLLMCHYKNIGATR
The data set can be described thus: Displacement of [3H]-N-Methylscopolamine from human M2 receptor expressed in CHOK1 cells. The class given is cell-based, CHO-K1.

The nature of data set [3]: Ratio of total drug level in Sprague-Dawley rat brain to plasma at 0.20-0.25 mg/kg, iv at 0.25 hrs.
Data set [4] can be described thus: Unbound fraction in rat plasma. The class given is ADME, cell-free.
In the next data set the test system is Rattus norvegicus. The data set can be described thus: Reversal of amphetamine-induced hyperlocomotion in Sprague-Dawley rat at 10 mg/kg, po administered 30 mins after habituation in the chamber followed by amphetamine injection measured for 60 mins. The class given is functional.
The nature of data set [5]: Plasma clearance in Sprague-Dawley rat at 1 mg/kg, iv. The format is ADME, organism-based.
For data set [6], the target named is T2, Muscarinic acetylcholine receptor M1 (Homo sapiens, UniProt P11229).
T2 sequence (P11229 whole entry): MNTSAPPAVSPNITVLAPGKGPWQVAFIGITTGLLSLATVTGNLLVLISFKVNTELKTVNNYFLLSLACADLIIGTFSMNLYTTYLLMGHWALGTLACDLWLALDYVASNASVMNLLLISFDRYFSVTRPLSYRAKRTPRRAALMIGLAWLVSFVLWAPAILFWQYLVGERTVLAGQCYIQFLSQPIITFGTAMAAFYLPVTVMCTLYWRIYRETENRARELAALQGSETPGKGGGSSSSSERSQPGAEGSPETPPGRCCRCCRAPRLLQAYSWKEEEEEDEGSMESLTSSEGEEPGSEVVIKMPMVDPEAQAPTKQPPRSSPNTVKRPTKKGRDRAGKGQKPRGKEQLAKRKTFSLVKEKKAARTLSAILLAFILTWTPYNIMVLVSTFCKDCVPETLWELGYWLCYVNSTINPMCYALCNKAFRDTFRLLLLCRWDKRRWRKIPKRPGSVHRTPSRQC
The data set can be described thus: Displacement of [3H]-N-Methylscopolamine from human M1 receptor expressed in CHOK1 cells. The format is cell-based, CHO-K1. In general terms: In a radioligand displacement assay an active substance lowers the binding of a labelled ligand.

Data set [7] in a line: Half life in Sprague-Dawley rat at 1 mg/kg, iv. The class given is ADME, organism-based. The settings on record: in vivo; for half-life: Sprague-Dawley.
The target in data set [8] is T3, Muscarinic acetylcholine receptor M1 (Rattus norvegicus, UniProt P08482).
T3 sequence (P08482 whole entry): T2 sequence (P11229 whole entry) with A5V, T254S, P309S, R320K, A337G, I413V
The data set can be described thus: Binding affinity to rat M1 receptor by radio-ligand binding assay.

For data set [9], the target named is T4, Muscarinic acetylcholine receptor M2 (Rattus norvegicus, UniProt P10980).
T4 sequence (P10980 whole entry): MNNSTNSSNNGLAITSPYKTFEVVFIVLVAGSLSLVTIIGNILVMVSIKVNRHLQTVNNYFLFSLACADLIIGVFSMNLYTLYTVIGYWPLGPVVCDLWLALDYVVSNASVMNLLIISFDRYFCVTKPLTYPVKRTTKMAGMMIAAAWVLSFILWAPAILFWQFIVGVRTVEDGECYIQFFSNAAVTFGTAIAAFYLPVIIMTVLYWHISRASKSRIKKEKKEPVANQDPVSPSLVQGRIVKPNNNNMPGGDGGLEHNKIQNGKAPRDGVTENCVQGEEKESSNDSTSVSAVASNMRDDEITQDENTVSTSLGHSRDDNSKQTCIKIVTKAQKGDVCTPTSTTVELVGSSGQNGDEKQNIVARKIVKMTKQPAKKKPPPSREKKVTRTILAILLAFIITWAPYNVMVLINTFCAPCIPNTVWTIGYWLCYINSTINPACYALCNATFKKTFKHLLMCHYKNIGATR
The data set can be described thus: Binding affinity to rat M2 receptor by radio-ligand binding assay.

The next data set has as its target T5, Cytochrome P450 1A2 (Homo sapiens, UniProt P05177).
T5 sequence (P05177 whole entry): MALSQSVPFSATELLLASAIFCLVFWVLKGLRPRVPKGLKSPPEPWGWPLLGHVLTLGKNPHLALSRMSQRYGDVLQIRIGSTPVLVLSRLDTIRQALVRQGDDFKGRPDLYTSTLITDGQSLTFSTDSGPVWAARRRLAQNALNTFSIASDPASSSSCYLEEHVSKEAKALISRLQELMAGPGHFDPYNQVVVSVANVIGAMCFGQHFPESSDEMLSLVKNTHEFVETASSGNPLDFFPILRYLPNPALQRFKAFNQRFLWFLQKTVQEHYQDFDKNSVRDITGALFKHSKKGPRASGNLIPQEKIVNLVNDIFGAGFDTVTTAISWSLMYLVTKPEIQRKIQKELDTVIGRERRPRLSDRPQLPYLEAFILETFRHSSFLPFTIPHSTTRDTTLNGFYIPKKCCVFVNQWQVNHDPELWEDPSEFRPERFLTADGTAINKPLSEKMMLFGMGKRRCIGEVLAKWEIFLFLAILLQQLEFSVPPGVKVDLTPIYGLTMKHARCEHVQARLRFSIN
The data set can be described thus: Inhibition of CYP1A2 (unknown origin). The format is ADME.

By Kp is commonly meant the ratio of the level in a tissue or fluid to that in plasma or blood. A word on the EC50: it is the concentration at which the effect is half-maximal. Read a low EC50 as an effect from little substance. One may read the clearance as the rate of elimination divided by the concentration. Lower therefore signals inefficient removal. One may read the half-life as the time needed for the level to fall by half in the phase considered. What is called IC50 is the midpoint of a concentration-inhibition curve. Usually fraction unbound stands for free concentration divided by total concentration. Low values mean extensive binding, high ones weak binding.

Changes are numbered by the printed parent chain.

As for `Cc1nnc2sc(C(=O)NCc3ccc(S(=O)(=O)C(F)F)cc3)c(N)c2c1C`, the Kp in data set [1] and in data set [3] was 0.11 each time. The concentration for a half-maximal effect (EC50) in data set [2], in data set [6], in data set [8] and in [9] was > 30 µM in each case. Besides, the Fu in data set [4] is listed as 0.066. Moreover, in the data set on Rattus norvegicus, the Activity turned out to be 49.3%. In addition, the clearance in [5] amounted to 16 mL/min/kg. Besides, in [7], the half-life was 2.4 h. Besides, the half-maximal inhibitory concentration (IC50) against Cytochrome P450 1A2 is > 30 µM.

As to `Cc1nnc2sc(C(=O)NCc3ccc(S(=O)(=O)C(F)(F)F)cc3)c(N)c2c1C`, the EC50 in [2], in data set [6], in [8] and in [9] was > 30 µM throughout. Further, in [3], the Kp worked out at 0.49. In addition, the unbound share (fraction unbound) in data set [4] worked out at 0.031. In addition, the Activity with Rattus norvegicus turned out to be 55.3%. In [7], this molecule had a t1/2 of 5.7 h. Also, at Cytochrome P450 1A2, the IC50 was > 30 µM.

On to `Cc1nnc2sc(C(=O)NCc3ccc(S(F)(F)(F)(F)F)cc3)c(N)c2c1C`, for which the Kp in data set [1] is reported as 1.4; in [3], 1. The EC50 in [2], in data set [6], in data set [8] and in data set [9] was > 30 µM in each case. In addition, the Activity in the data set with Rattus norvegicus amounted to 66.3%. Further, in [5], the clearance came to 12 mL/min/kg. This molecule showed a half-life in data set [7] of 3.6 h. Further, the concentration for half-maximal inhibition (IC50) against Cytochrome P450 1A2 was > 30 µM.
